Laboratory results published in a melting point compilation (Tetko et al.; mined from patent text by program, amines drawn as free bases though some values may be those of a salt).

Row | Compound | melting point
1 | CCOC(=O)c1cc2c3n(ccc-2n1)CC=N3 | 154 to 156 °C
2 | CC(C)(C)c1cc(C=CC#N)cc(C(C)(C)C)c1O | 109 to 113 °C
3 | COc1cnc(N2CCN(c3ccc([N+](=O)[O-])cc3)CC2)nc1 | 212 °C
4 | O=C1CCC(N2Cc3c(CNC(=O)NCc4ccccc4)cccc3C2=O)C(=O)N1 (configuration not stated) | 304 to 306 °C
5 | O=C(O)CCCCCCCNS(=O)(=O)c1ccc([N+](=O)[O-])cc1 | 126 to 127 °C
6 | COCCNC(NC(=O)c1cccnc1)C(Cl)(Cl)Cl (configuration not stated) | 75 to 77 °C
7 | Cc1cc(-c2noc(N(C)C)n2)ccc1-c1ccc(C(=O)N2CCCc3cc4c(cc32)C2(CCN(C)CC2)CO4)cc1 | 118 to 120 °C
8 | COc1ccnc(CCc2nc3cc(C)cnc3[nH]2)c1 | 150 to 152 °C
9 | CC(=O)SCSc1nnn[nH]1 | 90 °C
10 | CCOC(=O)/C(=C/c1ccc(OC)c(OC2CCCC2)c1)c1ccncc1 | 109 to 110 °C
11 | Cc1cccc(-c2nc3ccc(N(C)C)nn3c2-c2ccnc(NC3CCCCC3)c2)c1 | 191 to 192 °C
12 | CC1NC(=O)NN=C1c1ccc2c(c1)CCC(=O)N2CCO (configuration not stated) | 237 to 243 °C
13 | Clc1cc2nc3c4ccccc4c4ccccc4c3nc2cc1Cl | 263 to 264 °C
14 | CN1CCC2(CC1)NC(=S)N(c1ccc(C#N)c(C(F)(F)F)c1)C2=O | 229 to 230 °C
15 | N#CCC(=O)Nc1ccc(N)c([N+](=O)[O-])c1 | 218 to 221 °C
16 | O=C(O)[C@H](Cc1c[nH]c2ccccc12)NS(=O)(=O)c1ccc(N2CCC(c3ccccc3)CC2)cc1 | 103 to 107 °C
17 | COc1nc(C(F)(F)F)cc(=O)n1-c1cc(O)c(Br)cc1F | 132 to 136 °C
18 | O=C1c2ccccc2C(=O)N1OCc1ccn(C(c2ccccc2)(c2ccccc2)c2ccccc2)n1 | 177 to 179 °C
19 | CC(C)(CO)NS(=O)(=O)c1ccc(Cl)c(NC(=O)c2cnn3c(C(F)(F)F)cc(-c4ccc(C(F)(F)F)cc4)nc23)c1 | 246 °C
20 | COc1ccc2c(Cl)nncc2c1 | 181 to 183 °C
21 | COC(=O)c1ccc2oc(CCC=O)cc2c1 | 48 to 49 °C
22 | O=c1c2ccc(Cl)cc2[nH]c2c(=O)n(-c3ccc(Cl)cc3)nc(O)c12 | > 400 °C

Row | Compound | melting point
23 | CC(=O)N1[C@@H](c2ccc(Cl)cc2)SC(C)(C)[C@@H]1C(=O)O | 197 to 198 °C
24 | COc1cc2c(cc1OC)CN(c1nc(Cl)nc3cc(OC)c(OC)cc13)CC2 | 183 to 186 °C
25 | NS(=O)(=O)c1ccc(OCCn2ccnc2)cc1 | 148 °C
26 | CCOC(=O)c1ncoc1-c1cc(OC)c(OC)c([N+](=O)[O-])c1 | 109 to 110 °C
27 | Nc1ccc(-c2noc(-c3cnn4c(C(F)(F)F)cc(-c5ccc(C(F)(F)F)cc5)nc34)n2)cn1 | 257 °C
28 | CC(=O)NC(C)c1ccc(CN2CCN(c3ccc(F)cc3F)CC2)cc1 (configuration not stated) | 109 to 111 °C
29 | COCC1CCCN1S(=O)(=O)c1ccc2c(c1)C1(OCCCO1)C1=NCCCN12 (configuration not stated) | 129 to 130 °C
30 | O=C1CCC(c2ccc3c(c2)CCC2(CCN(C4CCC4)CC2)O3)=NN1 | 242 to 244 °C
31 | CN1C(=O)CN(C(=O)Cl)C(c2ccccc2)c2cc(Cl)ccc21 (single isomer, unassigned; (-)) | 201 to 204 °C
32 | O=C(O)CCCCN1C(=O)c2ccc(C(=O)O)cc2C1=O | 223 °C
33 | CC(C)(C)c1cc(O)cc(C(C)(C)C)c1C=C1SC(NCO)=NC1=O | 177 to 179 °C
34 | CCCCCCCCCCC1CCCC1C(=O)Nc1cccc2ncccc12 (configuration not stated) | 75 °C
35 | C#CCC(c1ccc(Cl)cc1Cl)C(O)(C(C)=O)c1cccnc1 (configuration not stated) | 132 °C
36 | N#CN=c1ccccn1C1=CC(CF)(CF)Oc2ccc([N+](=O)[O-])cc21 | 238 to 240 °C
37 | COc1ccc(C2C(N=[N+]=[N-])C(=O)N2c2ccc(C(=O)O)cc2)cc1 (configuration not stated) | 127 to 129 °C
38 | Cc1cc(=O)n2ncn(N)c2n1 | 202 to 204 °C
39 | COC(=O)c1nc(-c2cnco2)cc(N)c1Cl | 166 to 170 °C
40 | CC(/C=C/c1ccsc1-c1cc2c(cc1C)C(C)(C)CCC2(C)C)=C\C(=O)O | 194 to 195 °C
41 | O=C(NC1CCN(CCC2CCOc3ccccc32)CC1)c1ccncc1 (configuration not stated) | 122 to 123 °C
42 | O=C1CNc2ccccc2N1c1ccc(Cl)cc1 | 196 to 199 °C
43 | CCNC(=N)NC(=O)Cc1cccc(OC)c1 | 108 to 110 °C
44 | CC(C)N(Cc1ccc2cc(NC(=O)c3ccc(-c4ccc(Cl)cc4)cc3)ccc2c1)C(C)C | 246 to 250 °C

Row | Compound | melting point
45 | Cn1nc(C(F)(F)F)c(C(O)=C(Br)n2ccc(-c3c(F)cccc3F)n2)c1Cl | 123 to 125 °C
46 | FC(F)(F)Oc1ccc(-c2cncc(Cl)n2)cc1 | 58 to 60 °C
47 | COc1ccc(C2(c3ccc(OC)cc3)CCN(C[C@H]3CN(C)[C@@H]4Cc5c(Br)[nH]c6cccc(c56)[C@@]4(OC)C3)CC2)cc1 | 167 to 172 °C
48 | CCOCCCc1ccc(Oc2ccc3c(c2)C=C(C(=O)OC)CCS3(=O)=O)cc1 | 93 to 94 °C
49 | COc1cc2c(c3c1OC(C)(C)C3)C(c1cccc(-c3ccc(NC=O)cc3)c1)=NC(C)(C)C2 | 129 to 133 °C
50 | CC(C(=O)NCc1cccs1)(c1ccccc1)c1ccccc1 | 90 to 91 °C
51 | CC(=O)N(C)CC(C)c1ccncc1 (configuration not stated) | 83 to 88 °C
52 | COc1ccc(-c2ccc(-c3ccc(F)cc3)nc2-c2ccc(OCc3ccccc3)cc2)cc1 | 114 to 115 °C
53 | Cc1cc(-n2ccnc2)c2cccc(OCc3c(Cl)ccc(S(=O)(=O)N4CCC[C@H]4C(=O)O)c3Cl)c2n1 | 172 °C
54 | NCCc1cc(F)cc(C(F)(F)F)c1 | > 170 °C
55 | COc1cc(C)c(N)cc1C | 75 to 76 °C
56 | O=C(O)COc1ccc(CN2C(=O)C3(COc4cc5c(cc43)CCO5)c3ccccc32)cc1 (configuration not stated) | 265 to 266 °C
57 | CC(=O)N1CCN(c2nccc(Oc3ccc(NC(=O)c4cc(F)cc(N5CCCCC5)c4)c4ccccc34)n2)CC1 | 102 to 104 °C
58 | CC1(C)COC(c2ccc(S)cc2)OC1 | 134 to 136 °C
59 | Cc1cccc(C(=O)c2cccc(N)c2)c1 | 110 °C
60 | COC(=O)c1cc(-c2nc3ccccc3s2)cc2c1OC(c1ccccc1)(c1ccccc1)O2 | 184 to 185 °C
61 | O=C(Nc1cc(C(F)(F)F)cc(C(F)(F)F)c1)c1cc(Cl)cnc1O | > 270 °C
62 | CCOc1cc2cc3c(Nc4cc(OC)c(Cl)cc4C)c(C#N)cnc3cc2cc1OCCN(CC(N)=O)CC(N)=O | 168 to 170 °C
63 | COC(=O)CC(Oc1c(Br)cc(-c2c3ccccc3c(Br)c3sc4ccccc4c23)cc1Br)C(=O)OC (configuration not stated) | 118 to 121 °C
64 | N#CCCNC(=O)c1cccc(-c2ccc3ncn(Cc4ccc(Cl)cc4Cl)c3n2)c1 | 218 to 219 °C
65 | O=C1NCC(Cc2ccc3c(c2)OCO3)O1 (configuration not stated) | 98.5 to 100 °C
66 | Clc1ccc(Nc2cncc(-n3cccn3)n2)cc1 | 155 to 157 °C

Continued, values first:

Row | melting point | Compound
67 | 173 to 174 °C | COc1ccc2cc(CC(=O)O)ccc2c1
68 | 275 to 280 °C | Cc1c2ccccc2c2c3c(cccc13)C(=O)OC2=O
69 | 188 to 189 °C | CCCn1nc(-c2cnc(N)nc2-c2ccccc2)ccc1=O
70 | 176 °C | Cc1c(-c2ccccc2)nc(N)nc1C1CCN(Cc2cccc(C#N)c2)CC1
71 | 205 to 208 °C | CCC1C(=O)Nc2cccc3c2N1C(=O)C3c1ccccc1 (configuration not stated)
72 | 163 to 165 °C | N=C(NC=Cc1ccc([N+](=O)[O-])cc1)c1ccccc1
73 | 107 to 108 °C | CSC(C#N)c1cccc(C(=O)c2ccccc2)c1N (configuration not stated)
74 | 132 to 134 °C | CC(=O)c1ccc(OCc2ccsc2)cc1OC(CCc1ccccc1C#N)C(=O)O (configuration not stated)
75 | 203 to 207 °C | CCCCCc1ccccc1C=CC=C1SC(=S)N(CC(=O)O)C1=O
76 | 115 to 116 °C | COc1cc(C=CC=O)ccc1OCc1csc(-c2ccccc2)n1
77 | 135 to 139 °C | CCN(CC)CCNC(=O)c1cc(Cl)c(N)cc1OCC(=O)c1cccs1
78 | 224 to 227 °C | NS(=O)(=O)Cc1ccccc1-c1nnc(S)o1
79 | 190 to 195 °C | CCCCCCC(C(=O)N[C@@H](CC(=O)O)C(=O)O)n1cnc2cc(-c3ccccc3-c3nn[nH]n3)ccc21 (some centres not stated)
80 | 129 to 130 °C | CC(C)n1nc(-c2c(-c3ccccc3)nn3ccc(N4CCN(C(=O)CN(C)C)CC4)cc23)ccc1=O
81 | 86 °C | CCCCOc1ccc(S(=O)(=O)C2(C(=O)OCC)CCN(Cc3ccc(Cl)c(Cl)c3)CC2)cc1
82 | 167 to 168 °C | O=C(NCCO)c1cccc(-c2ccc3c(c2)N(c2ccc(Cl)c(Cl)c2)CC3)c1

Row | melting point | Compound
83 | 175 °C | CC(C)=CC(=O)Nc1ccc(F)cc1CCN1CCN(c2nsc3ccccc23)CC1
84 | 224 °C | Cc1ccc(O)c(Cn2c(NC3CCNC(CCN4CCOCC4)C3)nc3ccc(C=Cc4ccccc4)cc32)n1 (configuration not stated)
85 | 115 to 117 °C | CCOc1ccn2nc(SCc3ccccc3)nc2n1
86 | 42 to 44 °C | CN(C)c1ccc(/C=C/c2c(F)cccc2Cl)cc1
87 | 173 to 174 °C | COc1cc(COc2nn(-c3ccccc3)cc2/C=C/C(=O)N(C)OC)ccc1OCc1nc(-c2ccco2)oc1C
88 | 105 to 106 °C | CN(C(=O)OC(C)(C)C)c1cc(Oc2ccc(Oc3ccccc3)cc2)ccc1N
89 | 103 to 105 °C | O=C(O)C(=O)c1ccc(OC/C=C/c2ccccc2)cc1
90 | 153 to 155 °C | CCC(=O)N(C)N1CC(C)(C)C(=O)c2ccc(S(=O)(=O)c3ccccc3)cc21
91 | 274 to 275 °C | CCn1cc(C(=O)NN)c(=O)c2ccc(-c3ccncc3)cc21
92 | 98 to 99 °C | Clc1ccc(Nc2nc3ccccc3o2)c(Cl)c1
93 | 100 to 101 °C | CCn1cc(CN(C(=O)C2CCCc3ccc(OCc4ccccc4)cc32)c2ccc(C(C)C)cc2)cn1 (configuration not stated)
94 | 108 to 109 °C | CCCCCCCCCCS(=O)(=O)c1ccc(O)c(C(=O)Nc2cccc(C(F)(F)F)c2)c1
95 | 74 to 76 °C | CCCC=Cc1c(CC)nc(CC)c(CO)c1-c1ccccc1
96 | 73 to 75 °C | O=C(O)CCCCNc1ccccc1-c1ccccc1
97 | 51 to 62 °C | Cc1c(C)c2c(c(C)c1OCc1ccccc1)C(=O)CC(C)(COC(C)(C)C)O2 (configuration not stated)
